Test results reported in EP0737689A1, “NOVEL 6-SUBSTITUTED OXA- OR […]” (TEIKOKU HORMONE MFG. CO., LTD., priority 1993, dated 1995).

How the values were obtained:
aromatase [1] = biological target: T1, aromatase (Rattus norvegicus, UniProt P22443); experiment: Assay of aromatase inhibition action (in vivo), inhibition of DHEAS-induced cornification of the vaginal smear; conditions: orally once a day for 4 days, hypophysectomized mature female rats, 16 mg/kg DHEAS, cornification relative to solvent administration group
T1 construct: mature female rats after one week from hypophysectomy were used; from tissue; host or cells: whole animal (hypophysectomised mature female rats)
T1 sequence (P22443 1-508): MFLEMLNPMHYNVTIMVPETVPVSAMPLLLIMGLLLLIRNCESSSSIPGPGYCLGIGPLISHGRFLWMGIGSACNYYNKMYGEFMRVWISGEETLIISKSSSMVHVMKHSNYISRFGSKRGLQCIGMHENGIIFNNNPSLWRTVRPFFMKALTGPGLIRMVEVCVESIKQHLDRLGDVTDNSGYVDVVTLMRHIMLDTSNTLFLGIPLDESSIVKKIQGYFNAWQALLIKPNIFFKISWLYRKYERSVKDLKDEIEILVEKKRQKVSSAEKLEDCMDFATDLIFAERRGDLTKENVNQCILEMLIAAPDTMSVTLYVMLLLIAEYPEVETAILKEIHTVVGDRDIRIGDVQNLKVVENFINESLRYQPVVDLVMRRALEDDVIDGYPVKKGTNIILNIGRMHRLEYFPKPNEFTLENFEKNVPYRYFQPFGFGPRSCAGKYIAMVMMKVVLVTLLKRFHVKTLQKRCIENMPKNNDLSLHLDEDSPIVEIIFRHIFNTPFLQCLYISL
Description: An aromatase inhibition action was assayed according to the method developed by G.H.Deckers and A.H.W.M.Schuurs (Journal of Steroid Biochemistry 32, 625-631, 1989).
Namely, mature female rats after one week from hypophysectomy were used with one group of 8 to 10 animals. Either 16 mg/kg of dehydroepiandrosterone sulfate (DHEAS) and 5 ml/kg of a solvent (physiological saline containing 2 % polysorbate 80), or DHEAS and a test compound suspended in the solvent were orally administered once a day for successive 4 days. For 6 days from the next day of start of the administration, the vaginal smear was sampled, and observed under a microscope after being stained with Giemsa staining solution. Cornification of the vaginal smear due to DHEAS was observed from 3 days after the initial administration, and its action disappeared 6 days thereafter. Therefore, the cornification smear number was expressed as the total of from the third day to the fifth day from the start of administration. An cornification inhibition action by the test compound was expressed as a rate to cornification in the solvent administration group.
Since cornification of the vaginal smear is caused by estrogens biosynthetically produced from DHEAS by aromatase, inhibition of the cornification is observed when aromatase is inhibited.

aromatase [2] = biological target: T2, aromatase (Homo sapiens, UniProt P11511); experiment: Assay of aromatase inhibition action (in vitro), 3H2O release from [1β-3H]androstenedione; assay type: biochemical; conditions: freeze dried human placental microsomes, 2 µM [1β-3H]androstenedione, 180 µM NADPH, pH 7.5, 37°C, 20 minutes
T2 construct: Human placental microsomes (ones subjected to centrifugation at 105,000 X g for 60 minutes) were prepared according to the method of Ryan; from tissue; host or cells: human placenta (microsomal fraction)
T2 sequence (P11511 1-503): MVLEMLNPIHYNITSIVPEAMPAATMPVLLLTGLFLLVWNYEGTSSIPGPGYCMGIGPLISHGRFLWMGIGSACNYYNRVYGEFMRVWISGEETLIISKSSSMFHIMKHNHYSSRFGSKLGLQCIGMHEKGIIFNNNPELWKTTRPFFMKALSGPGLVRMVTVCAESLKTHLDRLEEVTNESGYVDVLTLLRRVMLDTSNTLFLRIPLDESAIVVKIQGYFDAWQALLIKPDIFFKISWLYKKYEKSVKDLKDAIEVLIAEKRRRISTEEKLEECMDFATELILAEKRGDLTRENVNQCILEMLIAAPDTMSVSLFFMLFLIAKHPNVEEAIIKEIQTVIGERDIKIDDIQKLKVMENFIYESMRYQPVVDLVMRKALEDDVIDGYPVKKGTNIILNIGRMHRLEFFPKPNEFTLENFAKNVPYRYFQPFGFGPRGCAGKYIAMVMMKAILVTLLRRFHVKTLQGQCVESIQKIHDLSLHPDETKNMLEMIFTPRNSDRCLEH
Description: Human placental microsomes (ones subjected to centrifugation at 105,000 X g for 60 minutes) were prepared according to the method of Ryan (The Journal of Biological Chemistry 234, 268-272, 1959). The microsomes were washed twice with 0.5 mM dithiothreitol solution, freeze dried, and stored at -20°C until use.
An aromatase inhibition action was assayed according to the method developed by Tompson and Siiteri (The Journal of Biological Chemistry 249, 5373-5378, 1974). Namely, the method comprises quantitatively determining ^3H2O released when [1β-^3H]androstenedione is aromatized. The experiment, when the enzyme was used, was conducted in 67 mM phosphate buffer (pH 7.5) so that the amount of the final incubation solution could be 0.5 ml. The incubation solution contains 180 µM of NADPH, 2 µM of [1β-^3H]androstenedione, 150 µg of freeze dried human placental microsomes, 25 µl of methanol and a test compound at various concentrations. Incubation was conducted in the air at 37°C for 20 minutes, 3 ml of chloroform was added to discontinue the reaction, and then the mixture was stirred for 40 seconds. The mixture was then centrifuged at 700 X g for 10 minutes, 0.3 ml of the aqueous solution was sampled from the supernatant, the scintillation mixture was added, and the amount of ^3H2O formed was measured.

Row | SMILES | Inhibition rate (%) (aromatase [1]; dose 5 mg/kg/day) | IC50 (aromatase [2]) [µM] | Inhibition rate (%) (aromatase [1]; dose 2 mg/kg/day)
1 | C[C@]12CC[C@H]3[C@@H](C[C@H](N=[N+]=[N-])C4=CC(=O)C=C[C@@]43C)[C@@H]1CCOC2 [Example 17, 6α-azido-D-homo-17-oxaandrosta-1,4-dien-3-one] | 100 | – | –
2 | CS[C@@H]1C[C@H]2[C@@H]3CCOC[C@@]3(C)CC[C@@H]2[C@@]2(C)C=CC(=O)C=C12 [Example 10, 6β-(methylthio)-D-homo-17-oxaandrosta-1,4-dien-3-one] | – | 0.8 | –
3 | CC(=O)S[C@H]1C[C@@H]2[C@H](CC[C@]3(C)C(=O)OCC[C@@H]23)[C@@]2(C)C=CC(=O)C=C12 [Example 15, 6α-(acetylthio)-D-homo-17-oxaandrosta-1,4-diene-3,17a-dione] | – | 1.6 | 90.9
4 | CC(=O)S[C@H]1C[C@H]2[C@@H]3CCOC[C@@]3(C)CC[C@@H]2[C@@]2(C)C=CC(=O)C=C12 [Example 19, 6α-(acetylthio)-D-homo-17-oxaandrosta-1,4-dien-3-one] | 72.3 | – | –
5 | CO[C@@H]1C[C@@H]2[C@H](CC[C@]3(C)C(=O)OCC[C@@H]23)[C@@]2(C)C=CC(=O)C=C12 [Example 31, 6β-methoxy-D-homo-17-oxaandrosta-1,4-diene-3,17a-dione] | 100 | – | –
6 | C[C@]12C=CC(=O)C=C1[C@@H](SC#N)C[C@@H]1[C@@H]2CC[C@]2(C)C(=O)OCC[C@@H]12 [Example 13 (6α), 6α-thiocyanato-D-homo-17-oxaandrosta-1,4-diene-3,17a-dione] | 81.3 | – | –
